According to ChEMBL document CHEMBL5321262, “Antiviral Activity of Cannabidiolic Acid and Its Methyl Ester against SARS-CoV-2” (J Nat Prod, 2023):
The source made the active and inactive calls. The calls are words filed in the database; no cut-off is given here.

Columns and labels:
[1] = tested on: SARS-CoV-2; assay: Antiviral activity against SARS-CoV-2 variant Omicron BA.5 infected African green monkey Vero E6 cells assessed as reduction in virus-induced cytopathic effect preincubated with virus for 1 hr followed by infection with cells and measured after 72 hrs by microscopic analysis; format: functional, organism-based; settings: Severe acute respiratory syndrome coronavirus 2, time 73.0 hrs
[2] = tested on: SARS-CoV-2; assay: Antiviral activity against SARS-CoV-2 variant Delta infected in African green monkey Vero E6 cells assessed as reduction in virus-induced cytopathic effect preincubated with virus for 1 hr followed by infection with cells and measured after 72 hrs by microscopic analysis; format: functional, organism-based; settings: Severe acute respiratory syndrome coronavirus 2, time 73.0 hrs
[3] = tested on: SARS-CoV-2; assay: Antiviral activity against SARS-CoV-2 variant Omicron BA.3 infected African green monkey Vero E6 cells assessed as reduction in virus-induced cytopathic effect preincubated with virus for 1 hr followed by infection with cells and measured after 72 hrs by microscopic analysis; format: functional, organism-based; settings: Severe acute respiratory syndrome coronavirus 2, time 73.0 hrs
[4] = tested on: SARS-CoV-2; assay: Antiviral activity against SARS-CoV-2 variant Omicron BA.2 infected in African green monkey Vero E6 cells assessed as reduction in virus-induced cytopathic effect preincubated with virus for 1 hr followed by infection with cells and measured after 72 hrs by microscopic analysis; format: functional, organism-based; settings: Severe acute respiratory syndrome coronavirus 2, time 73.0 hrs
[5] = tested on: SARS-CoV-2; assay: Antiviral activity against SARS-CoV-2 variant Omicron BA.4 infected African green monkey Vero E6 cells assessed as reduction in virus-induced cytopathic effect preincubated with virus for 1 hr followed by infection with cells and measured after 72 hrs by microscopic analysis; format: functional, organism-based; settings: Severe acute respiratory syndrome coronavirus 2, time 73.0 hrs
[6] = tested on: SARS-CoV-2; assay: Antiviral activity against SARS-CoV-2 variant Omicron BA.1 infected in African green monkey Vero E6 cells assessed as reduction in virus-induced cytopathic effect preincubated with virus for 1 hr followed by infection with cells and measured after 72 hrs by microscopic analysis; format: functional, organism-based; settings: Severe acute respiratory syndrome coronavirus 2, time 73.0 hrs
[7] = tested on: SARS-CoV-2; assay: Antiviral activity against SARS-CoV-2 variant Omicron BA.4 infected in African green monkey Vero E6 cells assessed as reduction in viral replication at 75 uM measured at 72 hrs post-infection by qRT-PCR analysis; format: functional, organism-based; settings: Severe acute respiratory syndrome coronavirus 2
[8] = tested on: SARS-CoV-2; assay: Antiviral activity against SARS-CoV-2 variant Delta infected in African green monkey Vero E6 cells assessed as inhibition of virus titers of progeny virus in supernatant at 75 uM measured after 72 hrs by CPE assay relative to control; format: functional; settings: Severe acute respiratory syndrome coronavirus 2, Delta, Vero C1008
[9] = tested on: SARS-CoV-2; assay: Antiviral activity against SARS-CoV-2 variant Omicron BA.4 infected in African green monkey Vero E6 cells assessed as reduction in virus titers of progeny virus in supernatant measured after 72 hrs by CPE assay; format: functional, organism-based; settings: Severe acute respiratory syndrome coronavirus 2, Omicron BA.4, Vero C1008, 72 h
[10] = tested on: SARS-CoV-2; assay: Antiviral activity against SARS-CoV-2 variant Delta infected in African green monkey Vero E6 cells assessed as reduction in virus-induced cytopathic effect at 75 uM preincubated with virus for 1 hr followed by infection with cells and measured after 72 hrs by microscopic analysis; format: functional, organism-based; settings: Severe acute respiratory syndrome coronavirus 2, time 73.0 hrs
[11] = tested on: SARS-CoV-2; assay: Antiviral activity against SARS-CoV-2 variant Omicron BA.5 infected African green monkey Vero E6 cells assessed as reduction in virus-induced cytopathic effect at 75 uM preincubated with virus for 1 hr followed by infection with cells and measured after 72 hrs by microscopic analysis; format: functional, organism-based; settings: Severe acute respiratory syndrome coronavirus 2, time 73.0 hrs
[12] = tested on: SARS-CoV-2; assay: Antiviral activity against SARS-CoV-2 variant Omicron BA.2 infected in African green monkey Vero E6 cells assessed as reduction in viral replication at 75 uM measured at 72 hrs post-infection by qRT-PCR analysis; format: functional, organism-based; settings: Severe acute respiratory syndrome coronavirus 2
[13] = tested on: SARS-CoV-2; assay: Antiviral activity against SARS-CoV-2 variant Delta infected in African green monkey Vero E6 cells assessed as reduction in virus titers of progeny virus in supernatant measured after 72 hrs by CPE assay; format: functional, organism-based; settings: Severe acute respiratory syndrome coronavirus 2, Delta, Vero C1008, 72 h
[14] = tested on: SARS-CoV-2; assay: Antiviral activity against SARS-CoV-2 variant Omicron BA.1 infected in African green monkey Vero E6 cells assessed as reduction in virus titers of progeny virus in supernatant measured after 72 hrs by CPE assay; format: functional, organism-based; settings: Severe acute respiratory syndrome coronavirus 2, Omicron BA.1, Vero C1008, 72 h
[15] = tested on: SARS-CoV-2; assay: Antiviral activity against SARS-CoV-2 variant Omicron BA.2 infected in African green monkey Vero E6 cells assessed as inhibition of virus titers of progeny virus in supernatant at 75 uM measured after 72 hrs by CPE assay relative to control; format: functional; settings: Severe acute respiratory syndrome coronavirus 2, Omicron BA.2, Vero C1008
[16] = tested on: SARS-CoV-2; assay: Antiviral activity against SARS-CoV-2 variant Omicron BA.1 infected in African green monkey Vero E6 cells assessed as reduction in viral replication at 75 uM measured at 72 hrs post-infection by qRT-PCR analysis; format: functional, organism-based; settings: Severe acute respiratory syndrome coronavirus 2
[17] = tested on: SARS-CoV-2; assay: Antiviral activity against SARS-CoV-2 variant Omicron BA.5 infected in African green monkey Vero E6 cells assessed as inhibition of virus titers of progeny virus in supernatant at 75 uM measured after 72 hrs by CPE assay relative to control; format: functional; settings: Severe acute respiratory syndrome coronavirus 2, Omicron BA.5, Vero C1008
[18] = tested on: SARS-CoV-2; assay: Antiviral activity against SARS-CoV-2 variant Omicron BA.3 infected in African green monkey Vero E6 cells assessed as reduction in viral replication at 75 uM measured at 72 hrs post-infection by qRT-PCR analysis; format: functional, organism-based; settings: Severe acute respiratory syndrome coronavirus 2
[19] = tested on: SARS-CoV-2; assay: Antiviral activity against SARS-CoV-2 variant Delta infected in African green monkey Vero E6 cells assessed as reduction in viral replication at 75 uM measured at 72 hrs post-infection by qRT-PCR analysis; format: functional, organism-based; settings: Severe acute respiratory syndrome coronavirus 2
[20] = tested on: SARS-CoV-2; assay: Antiviral activity against SARS-CoV-2 variant Omicron BA.5 infected in African green monkey Vero E6 cells assessed as reduction in viral replication at 75 uM measured at 72 hrs post-infection by qRT-PCR analysis; format: functional, organism-based; settings: Severe acute respiratory syndrome coronavirus 2
[21] = tested on: SARS-CoV-2; assay: Antiviral activity against SARS-CoV-2 variant Omicron BA.4 infected African green monkey Vero E6 cells assessed as reduction in virus-induced cytopathic effect at 75 uM preincubated with virus for 1 hr followed by infection with cells and measured after 72 hrs by microscopic analysis; format: functional, organism-based; settings: Severe acute respiratory syndrome coronavirus 2, time 73.0 hrs
[22] = tested on: SARS-CoV-2; assay: Antiviral activity against SARS-CoV-2 variant Omicron BA.2 infected in African green monkey Vero E6 cells assessed as reduction in virus titers of progeny virus in supernatant measured after 72 hrs by CPE assay; format: functional, organism-based; settings: Severe acute respiratory syndrome coronavirus 2, Omicron BA.2, Vero C1008, 72 h
[23] = tested on: SARS-CoV-2; assay: Antiviral activity against SARS-CoV-2 variant Omicron BA.2 infected in African green monkey Vero E6 cells assessed as reduction in virus-induced cytopathic effect at 75 uM preincubated with virus for 1 hr followed by infection with cells and measured after 72 hrs by microscopic analysis; format: functional, organism-based; settings: Severe acute respiratory syndrome coronavirus 2, time 73.0 hrs
[24] = tested on: SARS-CoV-2; assay: Antiviral activity against SARS-CoV-2 variant Omicron BA.1 infected in African green monkey Vero E6 cells assessed as reduction in virus-induced cytopathic effect at 75 uM preincubated with virus for 1 hr followed by infection with cells and measured after 72 hrs by microscopic analysis; format: functional, organism-based; settings: Severe acute respiratory syndrome coronavirus 2, time 73.0 hrs
[25] = tested on: SARS-CoV-2; assay: Antiviral activity against SARS-CoV-2 variant Omicron BA.4 infected in African green monkey Vero E6 cells assessed as inhibition of virus titers of progeny virus in supernatant at 75 uM measured after 72 hrs by CPE assay relative to control; format: functional; settings: Severe acute respiratory syndrome coronavirus 2, Omicron BA.4, Vero C1008
[26] = tested on: SARS-CoV-2; assay: Antiviral activity against SARS-CoV-2 variant Omicron BA.3 infected African green monkey Vero E6 cells assessed as reduction in virus-induced cytopathic effect at 75 uM preincubated with virus for 1 hr followed by infection with cells and measured after 72 hrs by microscopic analysis; format: functional, organism-based; settings: Severe acute respiratory syndrome coronavirus 2, time 73.0 hrs
[27] = tested on: SARS-CoV-2; assay: Antiviral activity against SARS-CoV-2 variant Omicron BA.3 infected in African green monkey Vero E6 cells assessed as reduction in virus titers of progeny virus in supernatant measured after 72 hrs by CPE assay; format: functional, organism-based; settings: Severe acute respiratory syndrome coronavirus 2, Omicron BA.3, Vero C1008, 72 h
[28] = tested on: SARS-CoV-2; assay: Antiviral activity against SARS-CoV-2 variant Omicron BA.5 infected in African green monkey Vero E6 cells assessed as reduction in virus titers of progeny virus in supernatant measured after 72 hrs by CPE assay; format: functional, organism-based; settings: Severe acute respiratory syndrome coronavirus 2, Omicron BA.5, Vero C1008, 72 h
[29] = tested on: SARS-CoV-2; assay: Antiviral activity against SARS-CoV-2 variant Omicron BA.1 infected in African green monkey Vero E6 cells assessed as inhibition of virus titers of progeny virus in supernatant at 75 uM measured after 72 hrs by CPE assay relative to control; format: functional; settings: Severe acute respiratory syndrome coronavirus 2, Omicron BA.1, Vero C1008
[30] = tested on: SARS-CoV-2; assay: Antiviral activity against SARS-CoV-2 variant Omicron BA.3 infected in African green monkey Vero E6 cells assessed as inhibition of virus titers of progeny virus in supernatant at 75 uM measured after 72 hrs by CPE assay relative to control; format: functional; settings: Severe acute respiratory syndrome coronavirus 2, Omicron BA.3, Vero C1008

In the case of `CCCc1cc(O)c(C/C=C(\C)CCC=C(C)C)c(O)c1`, the Activity [1] is reported as “inactive”, the Activity [2] is reported as “inactive” and the Activity [3] is reported as “inactive”. The Activity [4] was “inactive”, the Activity [5] was “inactive” and the Activity [6] was “inactive”.
`C=C(C)[C@@H]1CCC(C)=C[C@H]1c1c(O)cc(CCCCC)cc1O` [CANNABIDIOL] was tested, and the Activity [1] was “inactive”, the Activity [2] was “inactive” and the Activity [3] was “inactive”. The Activity [4] was “inactive”, the Activity [5] was “inactive” and the Activity [6] was “inactive”.
In the case of `C=C(C)[C@@H]1CCC(C)=C[C@H]1c1c(O)cc(CCCCC)c(C(=O)O)c1O` [CANNABIDIOLIC ACID], the Activity [7] is reported as “Active”, the inhibition at 75 µM [8] is reported as over 90% and the IC50 [9] is reported as 47.7 µM. The Activity [10] was “Active”, the Activity [11] was “Active” and the Activity [12] was “Active”. For the same molecule, the IC50 [13] was 30.7 µM, the IC50 [14] was 45.4 µM and the inhibition at 75 µM [15] was over 90%. The Activity [16] was “Active”, the inhibition at 75 µM [17] was over 90% and the Activity [18] was “Active”. For the same molecule, the Activity [19] was “Active”, the Activity [20] was “Active” and the Activity [21] was “Active”. The IC50 [22] was 35.1 µM, the Activity [23] was “Active” and the Activity [24] was “Active”. For the same molecule, the inhibition at 75 µM [25] was over 90%, the Activity [26] was “Active” and the IC50 [27] was 31.7 µM. For the same molecule, the IC50 [28] was 47.5 µM, the inhibition at 75 µM [29] was over 90% and the inhibition at 75 µM [30] was over 90%.
In the case of `CCCCCc1cc(O)c(C/C=C(\C)CCC=C(C)C)c(O)c1C(=O)O` [CANNABIGEROLIC ACID], the Activity [1] is reported as “inactive”, the Activity [2] is reported as “inactive” and the Activity [3] is reported as “inactive”. The Activity [4] was “inactive”, the Activity [5] was “inactive” and the Activity [6] was “inactive”.
In the case of `CCCCCc1cc(O)c(C/C=C(\C)CCC=C(C)C)c(O)c1` [CANNABIGEROL], the Activity [1] is reported as “inactive”, the Activity [2] is reported as “inactive” and the Activity [3] is reported as “inactive”. The Activity [4] was “inactive”, the Activity [5] was “inactive” and the Activity [6] was “inactive”.
`CCCCCc1cc(O)c2c(c1)OC(C)(CCC=C(C)C)C=C2` (stereo not given) [CANNABICHROMENE] was tested, and the Activity [1] was “inactive”, the Activity [2] was “inactive” and the Activity [3] was “inactive”. The Activity [4] was “inactive”, the Activity [5] was “inactive” and the Activity [6] was “inactive”.
With `C=C(C)[C@@H]1CCC(C)=C[C@H]1c1c(O)cc(CCC)cc1O` [CANNABIDIVARIN] the Activity [1] was “inactive”, the Activity [2] was “inactive” and the Activity [3] was “inactive”. The Activity [4] was “inactive”, the Activity [5] was “inactive” and the Activity [6] was “inactive”.
